Measured values reported in PMC3689638, “Cell cycle-dependent activity of the novel dual PI3K-MTORC1/2 inhibitor NVP-BGT226 in acute leukemia” (Molecular Cancer, 2013).
Entries after “also recorded” stand apart in the source; their conditions may differ. Read-outs that look alike come from different tables or passages of the source.

Key:
[1] = tested on: Ba/F3 KIT D816Y; test: Inhibition of proliferation (XTT), isogenic Ba/F3 model; format: cell-based, murine; settings: Mus musculus
[2] = tested on: Ba/F3 FLT3 D835Y; test: as above; format: cell-based, murine; settings: Mus musculus
[3] = tested on: native mononuclear cells derived from bone marrow donors; test: Annexin V/PI apoptosis assay, donor mononuclear cells ex vivo; format: cell-based, human
Experimental: However, this observation will need prospective verification on a larger patient cohort.
(§1) Translocation of phosphatidylserine from the inner to the outer leaflet of the plasma membrane as an early indicator of apoptosis was analyzed using an Annexin V-based assay (Immunotech, Marseilles, France) and a FACScalibur® flow cytometer loaded with CellQuest® analysis software (BD, Heidelberg, Germany).

[4] = tested on: Ba/F3 FLT3 N841H; test: Inhibition of proliferation (XTT), isogenic Ba/F3 model; format: cell-based, murine; settings: Mus musculus
[5] = tested on: MOLM14 cells (FLT3 ITD); test: annexin V-based apoptosis assay, MOLM14; format: cell-based; settings: Homo sapiens, MOLM-14, read-out: IC50 induction of apoptosis
Experimental: as §1

[6] = tested on: MOLM14 cells; test: cell cycle analysis by PI-stain flow cytometry, MOLM14; format: cell-based, human; settings: 72h
Experimental: Accumulation of cells in the G1/G0, S or G2/M phases was monitored 6, 24 and 72 hours after application of either agent.
A propidium iodide-based flow cytometry assay was assessed as described previously. In short, a propidium iodide stain assay is used to segregate cells according to the DNA content, which is graphically shown in a histogram plot (high content in G2/M, intermediate content in S-phase, low content in G1/G0 and lowest content in dead/apoptotic cells, which defines a sub-G1/G0 fraction),

[7] = tested on: Ba/F3 KIT D816Y; test: Induction of apoptosis, isogenic Ba/F3 model; format: cell-based, murine
Experimental: as §1

[8] = tested on: Ba/F3 KIT D816V; test: Induction of apoptosis, isogenic Ba/F3 model; format: cell-based, murine
Experimental: as §1

[9] = tested on: Ba/F3 FLT3 WT; test: Induction of apoptosis, isogenic Ba/F3 model; format: cell-based, murine
Experimental: as §1

[10] = tested on: Ba/F3 KIT D816F; test: Induction of apoptosis, isogenic Ba/F3 model; format: cell-based, murine
Experimental: as §1

[11] = tested on: Ba/F3 FLT3 K663Q; test: Induction of apoptosis, isogenic Ba/F3 model; format: cell-based, murine
Experimental: as §1

[12] = tested on: Ba/F3 FLT3 N841H; test: Induction of apoptosis, isogenic Ba/F3 model; format: cell-based, murine
Experimental: as §1

[13] = tested on: Ba/F3 FLT3 D835Y; test: Induction of apoptosis, isogenic Ba/F3 model; format: cell-based, murine
Experimental: as §1

[14] = tested on: Ba/F3 BCR/ABL1; test: Induction of apoptosis, isogenic Ba/F3 model; format: cell-based, murine
Experimental: as §1

[15] = tested on: Ba/F3 FLT3 ITD; test: Induction of apoptosis, isogenic Ba/F3 model; format: cell-based, murine
Experimental: as §1

[16] = tested on: Ba/F3 Parental (w/ IL3); test: Induction of apoptosis, isogenic Ba/F3 model; format: cell-based, murine
Experimental: as §1

[17] = tested on: Ba/F3 FLT3 K663Q; test: Inhibition of proliferation (XTT), isogenic Ba/F3 model; format: cell-based, murine; settings: Mus musculus
[18] = tested on: Ba/F3 KIT WT; test: as above; format: cell-based, murine; settings: Mus musculus
Experimental: (§2) FLT3 S451F cDNA cloned into a pCMVneo plasmid vector [53] was generously provided by Dr. Fröhling, University of Ulm, Germany. KIT wildtype cDNA cloned into a pJP1563 plasmid vector was obtained from the DNASU Plasmid Repository at the Biodesign Institute of the Arizona State University (ASU). Lipofection transfection into the parental Ba/F3 cell line was performed to stably express KIT wildtype or mutant FLT3 S451F by double selection for neomycin (pCMVneo plasmid), blasticidin (pJP1563 plasmid) or […] (G418; all other plasmids) resistance and IL-3-independent growth. The Ba/F3 KIT wildtype cell line was cultured using recombinant human stem cell factor (SCF/KIT Ligand, R&D, Minneapolis, MN) as a growth supplement.

[19] = as above; format: cell-based, murine; settings: mouse, Ba/F3 parental cells (with IL3), Ba/F3 Parental (w/ IL3)
[20] = tested on: Ba/F3 Parental (w/ IL3); test: as above; format: cell-based, murine
[21] = tested on: Ba/F3 FLT3 S451F; test: Induction of apoptosis, isogenic Ba/F3 model; format: cell-based, murine
Experimental: as §2, §1

[22] = tested on: Ba/F3 KIT WT; test: Induction of apoptosis, isogenic Ba/F3 model; format: cell-based, murine
Experimental: as §2, §1

[23] = tested on: mononuclear cells of a bone marrow donor; test: XTT-based proliferation assay, donor mononuclear cells ex vivo
Experimental: Bone marrow aspirate and peripheral blood samples from consented patients with acute leukemia as well as samples from healthy blood and bone marrow donors were collected in 5000 U heparin with the approval of the ethics committee of the Medical Faculties of the University of Tübingen or the University of Ulm. Mononuclear cells were isolated by Ficoll-Hypaque density gradient fractionation. Cells were cultured in DMEM medium, supplemented with 20% fetal bovine serum (GIBCO/Invitrogen, Darmstadt, Germany or Biochrom AG, Berlin, Germany), 1% penicillin G (10,000 units/mL), and streptomycin (10,000 μg/mg) and 2 mmol/L L-glutamine.

[24] = tested on: Ba/F3 BCR/ABL1; test: Inhibition of proliferation (XTT), isogenic Ba/F3 model; format: cell-based, murine; settings: Mus musculus
[25] = tested on: Jurkat cells; test: XTT-based cellular proliferation assay, Jurkat; format: cell-based; settings: Homo sapiens, read-out: IC50 cellular proliferation (linear regression analysis)
[26] = BaF3, 10 nM, read-out: Inhibition of proliferation At 10 nM (% alive)
[27] = BaF3, 100 nM, read-out: Inhibition of proliferation At 100 nM (% alive)

Cn1c(=O)n(-c2ccc(C(C)(C)C#N)cc2)c2c3cc(-c4cnc5ccccc5c4)ccc3ncc21 [NVP-BEZ235]
IC50 ([1]; BaF3): 72 nM
viability at 0.01 µM [1, 26]: 64%
viability at 0.1 µM [1, 27]: 62%
IC50 ([2]; BaF3): 5 nM
viability at 0.01 µM [2, 26]: 37%
viability at 0.1 µM [2, 27]: 30%
Apoptosis IC50 ([3]; Pt. Nr. 538 (donor)): Not reached
Apoptosis IC50 ([3]; Pt. Nr. 554 (donor)): Not reached
IC50 ([4]; BaF3): 9 nM
viability at 0.01 µM [4, 26]: 43%
viability at 0.1 µM [4, 27]: 47%
IC50 [5]: > 10000 nM
sub-G1 ([6]; 1000 nM): 19%
sub-G1 ([6]; 10 000 nM): 35%
Induction of apoptosis At 1000 nM (% apopt.) ([7]; 1000 nM): 5%
Induction of apoptosis At 5000 nM (% apopt.) ([7]; 5000 nM): 73%
IC50 ([7]; Mus musculus, BaF3): 1360 nM
Induction of apoptosis At 1000 nM (% apopt.) ([8]; 1000 nM): 4%
Induction of apoptosis At 5000 nM (% apopt.) ([8]; 5000 nM): 23%
Induction of apoptosis IC50 ([8]; not reached = > 5 000 nM): Not reached
Induction of apoptosis At 1000 nM (% apopt.) ([9]; 1000 nM): 38%
Induction of apoptosis At 5000 nM (% apopt.) ([9]; 5000 nM): 40%
IC50 ([9]; Mus musculus, BaF3): 8300 nM
Induction of apoptosis At 1000 nM (% apopt.) ([10]; 1000 nM): 40%
Induction of apoptosis At 5000 nM (% apopt.) ([10]; 5000 nM): 87%
IC50 ([10]; Mus musculus, BaF3): 1240 nM
Induction of apoptosis At 1000 nM (% apopt.) ([11]; 1000 nM): 17%
Induction of apoptosis At 5000 nM (% apopt.) ([11]; 5000 nM): 16%
Induction of apoptosis IC50 ([11]; not reached = > 5 000 nM): Not reached
Induction of apoptosis At 1000 nM (% apopt.) ([12]; 1000 nM): 19%
Induction of apoptosis At 5000 nM (% apopt.) ([12]; 5000 nM): 22%
Induction of apoptosis IC50 ([12]; not reached = > 5 000 nM): Not reached
Induction of apoptosis At 1000 nM (% apopt.) ([13]; 1000 nM): 19%
Induction of apoptosis At 5000 nM (% apopt.) ([13]; 5000 nM): 28%
Induction of apoptosis IC50 ([13]; not reached = > 5 000 nM): Not reached
Induction of apoptosis At 1000 nM (% apopt.) ([14]; 1000 nM): 38%
Induction of apoptosis At 5000 nM (% apopt.) ([14]; 5000 nM): 39%
Induction of apoptosis IC50 ([14]; not reached = > 5 000 nM): failed to achieve IC50; also recorded: Not reached
Induction of apoptosis At 1000 nM (% apopt.) ([15]; 1000 nM): 19%
Induction of apoptosis At 5000 nM (% apopt.) ([15]; 5000 nM): 27%
IC50 ([15]; Mus musculus, not reached = > 5 000 nM): > 10000 nM
Induction of apoptosis At 1000 nM (% apopt.) ([16]; 1000 nM): 3%
Induction of apoptosis At 5000 nM (% apopt.) ([16]; 5000 nM): 6%
Induction of apoptosis IC50 ([16]; not reached = > 5 000 nM): Not reached*
IC50 ([17]; BaF3): 91 nM
viability at 0.01 µM [17, 26]: 57%
viability at 0.1 µM [17, 27]: 51%
IC50 ([18]; BaF3): 6 nM
viability at 0.01 µM [18, 26]: 12%
viability at 0.1 µM [18, 27]: 11%
viability at 0.01 µM ([19]; 10 nM, read-out: Inhibition of proliferation At 10 nM (% alive)): 89%
viability at 0.1 µM ([19]; 100 nM, read-out: Inhibition of proliferation At 100 nM (% alive)): 98%
IC50 ([20]; Ba/F3 Parental (w/ IL3)): 2400 nM
IC50 ([20]; Mus musculus, BaF3, Ba/F3 Parental (w/ IL3)): ~2400 nM
Induction of apoptosis At 1000 nM (% apopt.) ([21]; 1000 nM): 49%
Induction of apoptosis At 5000 nM (% apopt.) ([21]; 5000 nM): 70%
IC50 ([21]; Mus musculus, BaF3): 741 nM
Induction of apoptosis At 1000 nM (% apopt.) ([22]; 1000 nM): 32%
Induction of apoptosis At 5000 nM (% apopt.) ([22]; 5000 nM): 85%
IC50 ([22]; Mus musculus, BaF3): 1400 nM
IC50 ([23]; Homo sapiens, read-out: Proliferation IC50, Pt. Nr. 552 (donor), bone marrow donor, ex vivo): > 1000 nM
IC50 ([23]; read-out: Proliferation IC50, Pt. Nr. 552 (donor), bone marrow donor, ex vivo): 1020 nM
IC50 ([24]; BaF3): 131 nM
viability at 0.01 µM [24, 26]: 58%
viability at 0.1 µM [24, 27]: 50%
IC50 [25]: 50 nM
